Measured values from the supplement of paper PMC10307832.

What was measured:
Assay in all cases: relative viability (nuclei count vs DMSO), 5 days (fraction); higher = more cells survive
[1] = system: NCI-H441
Procedure, shortened: (§1)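 Cells from lung cancer lines were seeded into 1536-well plates and, one day later, dosed by pin tool. Treatments were either a single drug or a fixed dose of an anchor drug with five library-drug doses (not always all listed) in √10 steps. After 5 days, nuclei were stained in a one-step fixation (final 0.05% Triton X-100, 1% formaldehyde, 1 ug/ml Hoechst) and counted on 4× images, and relative viability is the treated-to-vehicle nuclei ratio, as the median of duplicate plates.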

[2] = system: SW 900
Procedure, shortened: as §1

[3] = system: LCLC-103H
Procedure, shortened: as §1

[4] = system: NCI-H460
Procedure, shortened: as §1

[5] = system: NCI-H1651
Procedure, shortened: as §1

[6] = system: SK-MES-1
Procedure, shortened: as §1

[7] = system: LXF-289
Procedure, shortened: as §1

[8] = system: NCI-H661
Procedure, shortened: as §1

[9] = system: RERF-LC-KJ
Procedure, shortened: as §1

[10] = system: NCI-H1355
Procedure, shortened: as §1

[11] = system: NCI-H727
Procedure, shortened: as §1

[12] = system: NCI-H3122
Procedure, shortened: as §1

[13] = system: NCI-H1792
Procedure, shortened: as §1

[14] = system: NCI-H1915
Procedure, shortened: as §1

[15] = system: PC-14
Procedure, shortened: as §1

[16] = system: NCI-H2347
Procedure, shortened: as §1

[17] = system: NCI-H520
Procedure, shortened: as §1

[18] = system: NCI-H1755
Procedure, shortened: as §1

[19] = system: NCI-H322M
Procedure, shortened: as §1

[20] = system: NCI-H522
Procedure, shortened: as §1

With `CCN(CC)CCCCNc1ncc2cc(-c3cc(OC)cc(OC)c3)c(NC(=O)NC(C)(C)C)nc2n1` + CC(=O)c1c(C)c2cnc(Nc3ccc(N4CCNCC4)cn3)nc2n(C2CCCC2)c1=O [Palbociclib] (partner 0.5 µM) the relative viability ([1]; first compound 0.01 µM) was 0.193, the relative viability ([1]; first compound 0.03162 µM) was 0.204 and the relative viability ([1]; first compound 0.1 µM) was 0.198. The relative viability ([1]; first compound 0.3162 µM) was 0.261, the relative viability ([1]; first compound 1 µM) was 0.193 and the relative viability ([2]; first compound 0.01 µM) was 0.653. The relative viability ([2]; first compound 0.03162 µM) was 0.535, the relative viability ([2]; first compound 0.1 µM) was 0.602 and the relative viability ([2]; first compound 0.3162 µM) was 0.517. It also gave a relative viability ([2]; first compound 1 µM) of 0.483, a relative viability ([3]; first compound 0.01 µM) of 0.473 and a relative viability ([3]; first compound 0.03162 µM) of 0.423. It also gave a relative viability ([3]; first compound 0.1 µM) of 0.457, a relative viability ([3]; first compound 0.3162 µM) of 0.48 and a relative viability ([3]; first compound 1 µM) of 0.466. For the same molecule, the relative viability ([4]; first compound 0.01 µM) was 0.147, the relative viability ([4]; first compound 0.03162 µM) was 0.222 and the relative viability ([4]; first compound 0.1 µM) was 0.112. The relative viability ([4]; first compound 0.3162 µM) was 0.165, the relative viability ([4]; first compound 1 µM) was 0.147 and the relative viability ([5]; first compound 0.01 µM) was 0.539. For the same molecule, the relative viability ([5]; first compound 0.03162 µM) was 0.511, the relative viability ([5]; first compound 0.1 µM) was 0.547 and the relative viability ([5]; first compound 0.3162 µM) was 0.541. It also gave a relative viability ([5]; first compound 1 µM) of 0.47, a relative viability ([6]; first compound 0.01 µM) of 0.394 and a relative viability ([6]; first compound 0.03162 µM) of 0.345. The relative viability ([6]; first compound 0.1 µM) was 0.32, the relative viability ([6]; first compound 0.3162 µM) was 0.268 and the relative viability ([6]; first compound 1 µM) was 0.297. The relative viability ([7]; first compound 0.01 µM) was 0.628, the relative viability ([7]; first compound 0.03162 µM) was 0.581 and the relative viability ([7]; first compound 0.1 µM) was 0.673. For the same molecule, the relative viability ([7]; first compound 0.3162 µM) was 0.61, the relative viability ([7]; first compound 1 µM) was 0.559 and the relative viability ([8]; first compound 0.01 µM) was 0.394. It also gave a relative viability ([8]; first compound 0.03162 µM) of 0.41, a relative viability ([8]; first compound 0.1 µM) of 0.418 and a relative viability ([8]; first compound 0.3162 µM) of 0.444. The relative viability ([8]; first compound 1 µM) was 0.38, the relative viability ([9]; first compound 0.01 µM) was 1.07 and the relative viability ([9]; first compound 0.03162 µM) was 1.12. For the same molecule, the relative viability ([9]; first compound 0.1 µM) was 1.2, the relative viability ([9]; first compound 0.3162 µM) was 1.13 and the relative viability ([9]; first compound 1 µM) was 1.05. It also gave a relative viability ([10]; first compound 0.01 µM) of 0.378, a relative viability ([10]; first compound 0.03162 µM) of 0.402 and a relative viability ([10]; first compound 0.1 µM) of 0.465. For the same molecule, the relative viability ([10]; first compound 0.3162 µM) was 0.376, the relative viability ([10]; first compound 1 µM) was 0.364 and the relative viability ([11]; first compound 0.01 µM) was 0.581. For the same molecule, the relative viability ([11]; first compound 0.03162 µM) was 0.635, the relative viability ([11]; first compound 0.1 µM) was 0.769 and the relative viability ([11]; first compound 0.3162 µM) was 0.697. For the same molecule, the relative viability ([11]; first compound 1 µM) was 0.59, the relative viability ([12]; first compound 0.01 µM) was 0.184 and the relative viability ([12]; first compound 0.03162 µM) was 0.175. For the same molecule, the relative viability ([12]; first compound 0.1 µM) was 0.157, the relative viability ([12]; first compound 0.3162 µM) was 0.194 and the relative viability ([12]; first compound 1 µM) was 0.179. The relative viability ([13]; first compound 0.01 µM) was 0.66, the relative viability ([13]; first compound 0.03162 µM) was 0.623 and the relative viability ([13]; first compound 0.1 µM) was 0.568. It also gave a relative viability ([13]; first compound 0.3162 µM) of 0.562, a relative viability ([13]; first compound 1 µM) of 0.639 and a relative viability ([14]; first compound 0.01 µM) of 0.655. It also gave a relative viability ([14]; first compound 0.03162 µM) of 0.528, a relative viability ([14]; first compound 0.1 µM) of 0.557 and a relative viability ([14]; first compound 0.3162 µM) of 0.546. It also gave a relative viability ([14]; first compound 1 µM) of 0.496, a relative viability ([15]; first compound 0.01 µM) of 0.599 and a relative viability ([15]; first compound 0.03162 µM) of 0.467. For the same molecule, the relative viability ([15]; first compound 0.1 µM) was 0.654, the relative viability ([15]; first compound 0.3162 µM) was 0.564 and the relative viability ([15]; first compound 1 µM) was 0.56. For the same molecule, the relative viability ([16]; first compound 0.01 µM) was 0.551, the relative viability ([16]; first compound 0.03162 µM) was 0.452 and the relative viability ([16]; first compound 0.1 µM) was 0.415. It also gave a relative viability ([16]; first compound 0.3162 µM) of 0.484, a relative viability ([16]; first compound 1 µM) of 0.387 and a relative viability ([17]; first compound 0.01 µM) of 0.22. It also gave a relative viability ([17]; first compound 0.03162 µM) of 0.22, a relative viability ([17]; first compound 0.1 µM) of 0.217 and a relative viability ([17]; first compound 0.3162 µM) of 0.175. The relative viability ([17]; first compound 1 µM) was 0.15, the relative viability ([18]; first compound 0.01 µM) was 0.474 and the relative viability ([18]; first compound 0.03162 µM) was 0.448. The relative viability ([18]; first compound 0.1 µM) was 0.462, the relative viability ([18]; first compound 0.3162 µM) was 0.472 and the relative viability ([18]; first compound 1 µM) was 0.459. The relative viability ([19]; first compound 0.01 µM) was 0.516, the relative viability ([19]; first compound 0.03162 µM) was 0.45 and the relative viability ([19]; first compound 0.1 µM) was 0.508. For the same molecule, the relative viability ([19]; first compound 0.3162 µM) was 0.504, the relative viability ([19]; first compound 1 µM) was 0.474 and the relative viability ([20]; first compound 0.01 µM) was 1.04. For the same molecule, the relative viability ([20]; first compound 0.03162 µM) was 1.01, the relative viability ([20]; first compound 0.1 µM) was 0.921 and the relative viability ([20]; first compound 0.3162 µM) was 1.12. For the same molecule, the relative viability ([20]; first compound 1 µM) was 0.935.
